Reference: patent publication US9669005B2, “Use of naringenin in preparing drugs for preventing and/or treatment abdominal aortic aneurysm” (priority 2013, dated 2017)

Key:
Format in all cases: in vivo
NMP-9 and NMP-2 = assay: Gelatin zymography, angiotensin II model; settings: AngII ApoE-/- mice; naringenin gavage; FIG. 8B
Experimental: After extravasated blood in fresh removed blood vessels of infrarenal site in abdominal aortas of mice were cleared, and fat and connective tissues were removed, and blood vessels were cut into 1 cm ring, and put into 24-well plate. Blood vessels were cultured for 24 hours using 0.5 ml serum-free medium with high glucose. After the cultured supernatant protein was quantified, mercaptoethanol-free protein sample loading buffer was added, cryopreserved at −80° C. Water was used to prepare gelatin (Sigma-Aldrich, St. Louis, Mo.) into a concentration of 10 mg/ml, which was added to separation gel of protein electrophoresis according to the proportion of 1:10, causing the final concentration of gelatin as 1 mg/ml. Electrophoresis was performed in a voltage of 80V at 4° C. The gel was put into 0.25% Trixon-100 solution, and washing was performed twice in 30 minutes. […] Incubated gel was put into Coomassie brilliant blue to stain for 1-2 hours at room temperature, washed for 30 minutes with a solution having 30% methanol and 10% glacial acetic acid, a solution having 20% methanol and 10% glacial acetic acid, and a solution having 10% methanol and 5% glacial acetic acid, respectively, and then analyzed with Odyssey infrared fluorescence scanning system (LI-COR Biosciences, Lincoln, Nebr.). […]

IL-6 and MCP-1 = assay: Immunofluorescent staining of IL-6 and MCP-1 in vascular walls, angiotensin II model; settings: AngII ApoE-/- mice; naringenin gavage; immunofluorescence; FIG. 7C
Experimental: In order to illustrate the mechanism by which naringenin reduces inflammatory reaction of abdominal aorta vascular walls of mice, immunofluorescent staining was performed on IL-6 and MCP-1 by continuous sections to analyze their distributions and expressions in vascular walls.

[1] = Body weight and blood fat of CaPO4 treated C57BL/6J mice
Experimental: Gavage was started at the first day after surgery, and water, naringenin (50 mg/kg) (Sigma-Aldrich, St. Louis, Mo.) or doxycycline (100 mg/kg) (Sigma-Aldrich, St. Louis, Mo.) gavage were given on mice daily. Materials were removed from the mice 7 days after gavage. Mice were weighed, and blood was drawn from inner canthus by capillary, after centrifuged for 10 minutes at 6000 rotations, the supernatant was removed and blood fat was measured (kit is purchased from BIOSINO company). Then perfusion and washing were performed on mice using PBS. Blood vessels were separated, and four blood vessels were randomly chosen for each group for photographing. The results were shown in FIG. 1, wherein, NaCl was the group of daubing NaCl (n=11), CaPO4 was the group of daubing CaPO4 plus water feed (n=12), CaPO4+NGN was the group of daubing CaPO4 μlus naringenin gavage (n=11), and CaPO4+Dox was the group of daubing CaPO4 μlus doxycycline gavage (n=11).

metalloproteinase NMP-9 = assay: Gelatin zymography, ApoE knockout mice after second round of angiotensin II; settings: abdominal aortas, naringenin gavage, FIG. 10D
Experimental: […] Blood vessels were cultured for 24 hours using 0.5 ml serum-free medium with high glucose. After the cultured supernatant protein was quantified, mercaptoethanol-free protein sample loading buffer was added, cryopreserved at −80° C. Water was used to prepare gelatin (Sigma-Aldrich, St. Louis, Mo.) into a concentration of 10 mg/ml, which was added to separation gel of protein electrophoresis according to the proportion of 1:10, causing the final concentration of gelatin as 1 mg/ml. Electrophoresis was performed in a voltage of 80V at 4° C. The gel was put into 0.25% Trixon-100 solution, and washing was performed twice in 30 minutes. And then the gelatin was added to incubation solution (50 mM Tris, 0.2M NaCl, 5 mM CaCl2, 0.02% sodium azide), incubated for 24-48 hours at 37° C. Incubated gel was put into Coomassie brilliant blue to stain for 1-2 hours at room temperature, washed for 30 minutes with a solution having 30% methanol and 10% glacial acetic acid, a solution having 20% methanol and 10% glacial acetic acid, and a solution having 10% methanol and 5% glacial acetic acid, respectively, and then analyzed with Odyssey infrared fluorescence scanning system (LI-COR Biosciences, Lincoln, Nebr.). Both NMP-2 and NMP-9 are gelatinases, and can degrade gelatin; the places where gelatin is degraded are white, and other places are still black. […]

[2] = test system: inflammatory cell (macrophage and leukocyte) in adventitia; assay: Immunofluorescent staining of inflammatory cells (Mac3, CD45), angiotensin II model; settings: AngII ApoE-/- mice; naringenin gavage vs water; FIG. 7A
Text: CD45 and Mac3 were results of immunofluorescent staining on […].

[3] = CaPO4 treated C57BL/6J mice, gavage 7 days, naringenin 50 mg/kg, doxycycline 100 mg/kg

O=C1C[C@@H](c2ccc(O)cc2)Oc2cc(O)cc(O)c21 [naringenin]
active form of NMP-9 and NMP-2 (gelatin zymography) (NMP-9 and NMP-2): do not change significantly | zymogen form of MMP-9 (gelatin zymography) (NMP-9 and NMP-2): significantly decreases | production of IL-6 and MCP-1 in vascular walls (IL-6 and MCP-1): significantly decreases | body weights and blood fat levels ([1]; C57BL/6J mice, naringenin gavage 50 mg/kg, 7 days): does not affect | Body weight [1, 3]: 20.1 ± 1.41 g | Cholesterol [1, 3]: 3.53 ± 0.45 mmol | Triglyceride [1, 3]: 0.97 ± 0.22 mmol | activity of metalloproteinase NMP-9 (gelatin zymography) (metalloproteinase NMP-9): significantly inhibit | infiltration of inflammatory cell (macrophage and leukocyte) in adventitia [2]: significantly reduce
